The subject of assay [1] is HUVEC. Put plainly: Cytotoxicity in HUVEC assessed as reduction in cell viability measured after 24 hrs by MTT assay. Format: cell-based. The note with it: Homo sapiens.
Assay [2] concerns HUVEC. As to the kind of experiment: Antimigratory activity in HUVEC assessed as inhibition of cell migration measured after 16 to 20 hrs by crystal violet staining-based microscopic analysis. Format: functional. The note with it: Homo sapiens.
The subject of assay [3] is HUVEC. Put plainly: Antimigratory activity in HUVEC assessed as inhibition of cell migration at 10 uM measured after 16 to 20 hrs by crystal violet staining-based microscopic analysis. Format: functional. The note with it: Homo sapiens.
In assay [4] the test system is HUVEC. As to the kind of experiment: Antiproliferative activity in HUVEC assessed as reduction in cell viability measured after 72 hrs by MTT assay. Format: functional, cell-based. The following applies: Homo sapiens. A general note: Tetrazolium dyes change colour on reduction, which living cells bring about.
Assay [5] is described as follows: Antiproliferative activity against bFGF-stimulated BBEC by Coulter particle counter method. Format: functional, Bos taurus.
The test system of assay [6] is RF/6A. Put plainly: Antimigratory activity in rhesus monkey RF/6A cells measured after 24 hrs by wound assay. Format: functional, cell-based. The note with it: Macaca mulatta.
Assay [7] concerns RF/6A. Put plainly: Antiproliferative activity in rhesus monkey RF/6A cells measured after 24 to 72 hrs by MTT assay. The note with it: Macaca mulatta. Format: functional, cell-based.

Activity calls are given as the source filed them. No cut-off for these calls is given here.

The IC50 is the concentration that gives 50% inhibition. Take `COc1cc(C2Oc3cc(-c4oc5cc(O)cc(O)c5c(=O)c4OC(=O)c4cc(O)c(O)c(O)c4)ccc3OC2CO)ccc1O` (stereo not drawn): the IC50 was determined as 18.9 µM with HUVEC [1], 36.8 µM with HUVEC [2] and 11.7 µM in the assay on HUVEC [4]. For the same molecule, the inhibition result with HUVEC [3] was “Active”.
In assay [5], `O=c1cc(-c2ccc(O)c(O)c2)oc2cc(O)cc(O)c12` [LUTEOLIN] came in with an IC50 of 1.9 µM.
Take `COc1cc(C2Oc3cc(-c4oc5cc(OC(=O)c6cc(O)c(O)c(O)c6)cc(O)c5c(=O)c4O)ccc3OC2CO)ccc1O` (stereo not drawn): the IC50 in the assay on HUVEC [1] stood at 3.4 µM; in the assay on HUVEC [2], 4.7 µM; in the assay with HUVEC [4], 1.6 µM. Also, in the assay on HUVEC [2], the inhibition entry is “Dose-dependent effect”. In addition, in the assay with HUVEC [3], the inhibition result is “Active”.
`O=c1c(O)c(-c2ccc(O)c(O)c2)oc2cc(O)cc(O)c12` [QUERCETIN]: the IC50 in assay [5] is 5.4 µM; with RF/6A [6], 40 µM; with RF/6A [7], 70 µM.
Turning to `COc1cc(O)c2c(=O)c(O)c(-c3ccc4c(c3)OC(c3ccc(O)c(OC)c3)C(CO)O4)oc2c1` (stereo not drawn), the IC50 turned out to be 15.2 µM with HUVEC [1], 10.4 µM in the assay on HUVEC [2] and 6.7 µM in the assay on HUVEC [4]. In addition, the inhibition entry in the assay on HUVEC [3] was “Active”.
For the molecule `COc1cc(C2Oc3cc(-c4oc5cc(O)cc(O)c5c(=O)c4OC)ccc3OC2CO)ccc1O` (stereo not drawn), the IC50 in the assay with HUVEC [1] is 22.5 µM; in the assay on HUVEC [2] it was 11.3 µM; in the assay on HUVEC [4] it was 4.9 µM. In addition, the inhibition result with HUVEC [3] was “Active”.
For the molecule `O=c1cc(-c2ccc(O)c(O)c2)oc2cc(OC3O[C@H](CO)[C@@H](O)[C@H](O)[C@H]3O)cc(O)c12` (stereo partly drawn), the IC50 in assay [5] was 18 µM.
For `COCC1Oc2ccc(-c3oc4cc(O)cc(O)c4c(=O)c3O)cc2OC1c1ccc(O)c(OC)c1` (stereo not drawn), the IC50 in the assay with HUVEC [1] is 28.3 µM; in the assay on HUVEC [2] it was 10.5 µM; in the assay on HUVEC [4] it was 5.3 µM. The inhibition result with HUVEC [3] is “Active”.
Regarding `COc1cc(C2Oc3cc(-c4oc5cc(O)cc(O)c5c(=O)c4O)ccc3OC2CO)ccc1O` (stereo not drawn) [DEHYDROSILYLBIN], the IC50 in the assay on HUVEC [1] was found to be 12 µM; with HUVEC [2], 12.2 µM; in the assay with HUVEC [4] it was 5.4 µM. Besides, in the assay with HUVEC [3], the inhibition result is “Active”.
For the molecule `COc1cc(O)c2c(=O)c(OC)c(-c3ccc4c(c3)OC(c3ccc(O)c(OC)c3)C(CO)O4)oc2c1` (stereo not drawn), the IC50 in the assay on HUVEC [1] came out at 43.1 µM; with HUVEC [2], 49.9 µM; in the assay on HUVEC [4], 8.3 µM. Moreover, the inhibition result in the assay with HUVEC [3] was “Active”.
For `COc1cc(C2Oc3cc(-c4oc5cc(O)cc(OC)c5c(=O)c4O)ccc3OC2CO)ccc1O` (stereo not drawn), the half-maximal inhibitory concentration (IC50) in the assay on HUVEC [1] was 62.4 µM; in the assay with HUVEC [2], 11.1 µM; with HUVEC [4] it was 6.2 µM. Further, the inhibition entry with HUVEC [3] was “Active”.
